In US12534742B2, “Compound for regulating gene editing efficiency and application thereof” (Shanghai Institute of Organic Chemistry, Chinese Academy of …, priority 2018, dated 2026):
Several values for one entry are separate records, joined by “and”; a condition that tells them apart may be missing. Identical values can stand only once.

Key:
[1] = molecular target: CRISPR/Cas9 from Streptococcus pyogenes (SpyCas9) (Streptococcus pyogenes serotype M1, UniProt Q99ZW2); test: cell-based;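 note: Cell-based reporter with a SpyCas9 target site placed in EGFP, where NHEJ repair of the cut restores the reading frame, read-out is the share of EGFP-positive cells, lowered by inhibitors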
CRISPR/Cas9 from Streptococcus pyogenes (SpyCas9), sequence (Q99ZW2 whole entry): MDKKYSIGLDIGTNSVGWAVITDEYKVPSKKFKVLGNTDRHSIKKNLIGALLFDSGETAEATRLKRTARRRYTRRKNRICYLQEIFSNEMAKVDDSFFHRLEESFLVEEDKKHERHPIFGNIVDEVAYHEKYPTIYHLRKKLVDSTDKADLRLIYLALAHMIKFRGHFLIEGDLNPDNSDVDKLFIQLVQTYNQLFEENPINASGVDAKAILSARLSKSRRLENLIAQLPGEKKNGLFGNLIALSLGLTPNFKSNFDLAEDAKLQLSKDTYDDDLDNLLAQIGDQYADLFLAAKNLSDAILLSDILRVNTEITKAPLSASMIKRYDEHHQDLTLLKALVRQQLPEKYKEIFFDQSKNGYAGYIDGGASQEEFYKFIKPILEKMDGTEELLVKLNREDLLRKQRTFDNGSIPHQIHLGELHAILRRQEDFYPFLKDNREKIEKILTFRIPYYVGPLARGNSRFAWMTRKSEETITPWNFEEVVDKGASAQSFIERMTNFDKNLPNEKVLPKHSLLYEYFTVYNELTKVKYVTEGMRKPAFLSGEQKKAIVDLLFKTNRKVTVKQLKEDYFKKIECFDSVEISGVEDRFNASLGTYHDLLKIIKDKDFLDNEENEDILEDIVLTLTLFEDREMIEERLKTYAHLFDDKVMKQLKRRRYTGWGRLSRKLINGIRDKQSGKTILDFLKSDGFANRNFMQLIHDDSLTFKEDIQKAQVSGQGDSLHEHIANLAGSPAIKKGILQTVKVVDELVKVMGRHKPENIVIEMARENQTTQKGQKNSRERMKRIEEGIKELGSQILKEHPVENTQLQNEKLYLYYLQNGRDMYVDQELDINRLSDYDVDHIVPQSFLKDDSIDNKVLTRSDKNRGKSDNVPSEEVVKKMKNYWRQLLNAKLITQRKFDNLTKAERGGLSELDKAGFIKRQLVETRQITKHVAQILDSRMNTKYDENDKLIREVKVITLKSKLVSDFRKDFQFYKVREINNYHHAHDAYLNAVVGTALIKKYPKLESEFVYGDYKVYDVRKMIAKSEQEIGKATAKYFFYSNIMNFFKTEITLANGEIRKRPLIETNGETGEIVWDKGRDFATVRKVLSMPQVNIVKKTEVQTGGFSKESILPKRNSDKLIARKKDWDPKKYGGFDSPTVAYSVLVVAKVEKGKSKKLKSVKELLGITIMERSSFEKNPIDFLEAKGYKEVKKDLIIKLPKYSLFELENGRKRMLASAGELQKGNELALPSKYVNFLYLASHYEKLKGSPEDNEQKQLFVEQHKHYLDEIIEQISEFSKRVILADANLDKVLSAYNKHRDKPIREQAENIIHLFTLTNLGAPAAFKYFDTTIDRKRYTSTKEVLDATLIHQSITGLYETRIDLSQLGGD
Source text: The CRISPR/Cas9 recognition site was inserted into the EGFP coding sequence so that the downstream sequence of the CRISPR/Cas9 recognition site was inside the box. The EGFP sequence was cleaved by Cas9 to produce double-strand breaks (DSBs), which would repair one of the two DNA repair mechanisms in the cell: non-homologous end joining (NHEJ) or homologous directed repair (HDR). The insertion or deletion introduced by NHEJ would restore the open reading frame of EGFP, thus activating EGFP fluorescence (FIG. 1).

SpyCas9 [2] = molecular target: T1, SpyCas9 (Streptococcus pyogenes serotype M1, UniProt Q99ZW2); test: Inhibition of plasmid-expressed SpyCas9 editing of endogenous genes in HEK293 cells, T7E1 test; assay type: cell-based; settings: 10 μM compound
T1 construct: expressed in transfected cells; host or cells: HEK293
T1 sequence (Q99ZW2 whole entry): as above
Experimental: (§1) HEK293 cells (10^5 cells/well) were seeded on a 24-well plate. 24 hours after inoculation, cells were transfected with 200 ng AAVS1-AS2 and 200 ng pST-Cas9 plasmid or 200 ng EMX1 and 200 ng pST-Cas9 plasmid in Opti-MEM medium. 6 hours after transfection, DMEM supplemented with 10% FBS and 10 μM drug (Compound 49) was used to replace Opti-MEM. The positive control for Cas9 activity was 200 ng AAVS1-AS2 and 200 ng pST-Cas9 plasmid or 200 ng EMX1 and 200 ng pST-Cas9 plasmid without drug. After the gene editing was completed, the cell genomic DNA was extracted, and the gene editing efficiency was tested by the T7E1 method (see Guschin, D. Y. et al. Methods Mol. Biol. 649, 247-256 (2010))).
The method of this example was the same as in Example 2.

SpyCas9 [3] = molecular target: T1, SpyCas9; test: Specificity of SpyCas9-based gene editing (targeted/off-target editing), T7E1 test; assay type: cell-based; settings: HEK293 cells
Experimental: as §1
SpyCas9 was lipid transfected into HEK293 cells or nuclear transfected into K562 cells to determine the effect of compound 49 on the specificity of SpyCas9 in multiple cell lines on different genes. The inhibitor was added to the culture 6 hours after transfection. The detection method is the same as in Example 2.

[4] = molecular target: T2, Staphylococcus aureus Cas9 (SaCas9) (Staphylococcus aureus, UniProt J7RUA5); test: Inhibition of plasmid-expressed SaCas9 gene editing in cell culture, T7E1 test; assay type: cell-based; settings: plasmid containing SaCas9; group without drug 14%
T2 construct: expressed in transfected cells; host or cells: HEK293 (method similar to 2.1)
T2 sequence (J7RUA5 whole entry): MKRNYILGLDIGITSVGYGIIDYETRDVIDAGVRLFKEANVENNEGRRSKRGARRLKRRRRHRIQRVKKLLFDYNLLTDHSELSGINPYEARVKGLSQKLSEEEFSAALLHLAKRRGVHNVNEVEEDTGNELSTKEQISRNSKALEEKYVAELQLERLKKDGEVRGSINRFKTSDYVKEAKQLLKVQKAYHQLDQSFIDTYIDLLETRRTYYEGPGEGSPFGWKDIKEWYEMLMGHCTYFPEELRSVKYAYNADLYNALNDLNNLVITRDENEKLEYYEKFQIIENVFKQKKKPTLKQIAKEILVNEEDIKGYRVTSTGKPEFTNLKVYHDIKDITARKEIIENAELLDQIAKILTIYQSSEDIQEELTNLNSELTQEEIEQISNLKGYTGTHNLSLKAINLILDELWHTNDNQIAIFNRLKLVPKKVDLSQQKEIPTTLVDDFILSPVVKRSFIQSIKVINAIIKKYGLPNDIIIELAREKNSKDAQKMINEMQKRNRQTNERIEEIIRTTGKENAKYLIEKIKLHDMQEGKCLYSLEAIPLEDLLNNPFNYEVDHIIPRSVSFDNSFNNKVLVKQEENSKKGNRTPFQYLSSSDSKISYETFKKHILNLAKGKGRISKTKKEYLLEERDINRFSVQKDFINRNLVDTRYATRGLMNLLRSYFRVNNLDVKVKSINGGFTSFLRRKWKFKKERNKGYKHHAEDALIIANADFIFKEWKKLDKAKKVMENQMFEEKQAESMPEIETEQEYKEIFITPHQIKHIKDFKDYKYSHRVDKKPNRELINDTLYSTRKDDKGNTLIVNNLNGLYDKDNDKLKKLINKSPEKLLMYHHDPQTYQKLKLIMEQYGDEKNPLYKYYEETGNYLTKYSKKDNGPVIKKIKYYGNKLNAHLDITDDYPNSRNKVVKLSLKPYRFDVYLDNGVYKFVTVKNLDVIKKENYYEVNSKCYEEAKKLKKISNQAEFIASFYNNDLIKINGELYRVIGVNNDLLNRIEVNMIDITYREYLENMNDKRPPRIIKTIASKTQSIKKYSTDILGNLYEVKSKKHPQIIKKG
Experimental: as §1
The method of this example was similar to 2.1, except that pST-Cas9 was replaced with a plasmid containing SaCas9. The detection method was the same as in Example 2.

base editing system = test: Regulation of base editing in HEK293T cells, deep sequencing; assay type: cell-based
[5] = humans; cited from earlier work

Compound: O=C(/C=C\n1cnc(-c2cc(C(F)(F)F)cc(C(F)(F)F)c2)n1)NNc1cnccn1 [Compound 49]
- IC50 [1]: < 1 µM
- gene modification rate (SpyCas9 [2]; HEK293 cells transfected with AAVS1-AS2 and pST-Cas9 plasmids, no-drug group 22.4% and 35.1%): < 1%
- gene modification rate (SpyCas9 [2]; HEK293 cells transfected with EMX1 and pST-Cas9 plasmids, no-drug group 26.5% and 27.9%): 5.6% and 3.8%
- ratio of the number of scheduled gene editing at specific sites to the number of scheduled gene editing at non-specific sites (SpyCas9 [3]; after compound added, 2.4 when no compound was added): 7
- raise of the specific/non-specific site editing ratio (SpyCas9 [3]; with compound versus no compound): 2.9 fold
- gene modification rate [4]: < 0.5%
- decrease rate of C→T conversion frequency (base editing system; sg47, C on 5th site, 500 nM compound): 50%
- C→T conversion frequency (base editing system; sg47, C on 5th site, 500 nM compound, 18% without compound): 9%
- indel frequency (base editing system; sg48, 500 nM compound): reduced overall
- C→T conversion inhibition efficiency (base editing system; sgMSSK1-5, C on 5th site in the window, 500 nM compound): 30%
- C→T conversion inhibition efficiency (base editing system; sgMSSK1-5, C on 11th site out-of-window, 500 nM compound): 50%
- safety in clinical testing [5]: safe for humans
